Reference: ChEMBL document CHEMBL1833797, “Microwave assisted synthesis and antimicrobial evaluation of new fused pyran derivatives bearing 2-morpholinoquinoline nucleus” (2011)
≈ marks a conversion by molar mass, not a printed value.

Columns and labels:
Streptococcus pneumoniae = test: Antimicrobial activity against Streptococcus pneumoniae MTCC 1936 for 24 hrs by microdilution method; assay type: functional; conditions: MTCC 1936, 24 h
Clostridium tetani = test: Antimicrobial activity against Clostridium tetani MTCC 449 for 24 hrs by microdilution method; assay type: functional; conditions: MTCC 449, 24 h
Bacillus subtilis = test: Antimicrobial activity against Bacillus subtilis MTCC 441 for 24 hrs by microdilution method; assay type: functional; conditions: MTCC 441, 24 h
Salmonella typhi = test: Antimicrobial activity against Salmonella typhi MTCC 98 for 24 hrs by microdilution method; assay type: functional, Salmonella enterica subsp. enterica serovar Typhi; conditions: Salmonella enterica, MTCC 98, 24 h
Vibrio cholerae = test: Antimicrobial activity against Vibrio cholerae MTCC 3906 for 24 hrs by microdilution method; assay type: functional; conditions: MTCC 3906, 24 h
Escherichia coli = test: Antimicrobial activity against Escherichia coli MTCC 443 for 24 hrs by microdilution method; assay type: functional; conditions: MTCC 443, 24 h
Aspergillus fumigatus = test: Antifungal activity against Aspergillus fumigatus MTCC 3008 for 48 hrs by microdilution method; assay type: functional
Candida albicans = test: Antifungal activity against Candida albicans MTCC 227 for 48 hrs by microdilution method; assay type: functional

Compound	MIC (Streptococcus pneumoniae) [µg/mL]	MIC (Clostridium tetani) [µg/mL]	MIC (Bacillus subtilis) [µg/mL]	MIC (Salmonella typhi) [µg/mL]	MIC (Vibrio cholerae) [µg/mL]	MIC (Escherichia coli) [µg/mL]	MIC (Aspergillus fumigatus; MTCC 3008, 48 h) [µg/mL]	MIC (Candida albicans; MTCC 227, 48 h) [µg/mL]	MIC (Aspergillus fumigatus) [µg/mL]	MIC (Candida albicans) [µg/mL]
COc1ccc2nc(N3CCOCC3)c(C3C(C#N)=C(N)Oc4c3c(=O)oc3ccccc43)cc2c1 (stereo unspecified)	200 (≈ 415 µM)	500 (≈ 1040 µM)	200 (≈ 415 µM)	500 (≈ 1040 µM)	500 (≈ 1040 µM)	500 (≈ 1040 µM)	1000 (≈ 2070 µM)	200 (≈ 415 µM)	–	–
CC1(C)CC(=O)C2=C(C1)OC(N)=C(C#N)C2c1cc2ccccc2nc1N1CCOCC1 (stereo unspecified)	500 (≈ 1160 µM)	250 (≈ 581 µM)	200 (≈ 465 µM)	200 (≈ 465 µM)	250 (≈ 581 µM)	250 (≈ 581 µM)	1000 (≈ 2320 µM)	500 (≈ 1160 µM)	–	–
O=C(N[C@H](CO)[C@H](O)c1ccc([N+](=O)[O-])cc1)C(Cl)Cl [CHLORAMPHENICOL]	50 (≈ 155 µM)	50 (≈ 155 µM)	50 (≈ 155 µM)	50 (≈ 155 µM)	50 (≈ 155 µM)	50 (≈ 155 µM)	–	–	–	–
COc1ccc2nc(N3CCOCC3)c(C3C(C#N)=C(N)OC4=C3C(=O)CCC4)cc2c1 (stereo unspecified)	250 (≈ 578 µM)	500 (≈ 1160 µM)	250 (≈ 578 µM)	200 (≈ 462 µM)	250 (≈ 578 µM)	200 (≈ 462 µM)	1000 (≈ 2310 µM)	500 (≈ 1160 µM)	–	–
Cc1ccc2nc(N3CCOCC3)c(C3C(C#N)=C(N)Oc4cc(O)ccc43)cc2c1 (stereo unspecified)	500 (≈ 1210 µM)	200 (≈ 483 µM)	500 (≈ 1210 µM)	200 (≈ 483 µM)	200 (≈ 483 µM)	200 (≈ 483 µM)	> 1000	> 1000	–	–
COc1ccc2nc(N3CCOCC3)c(C3C(C#N)=C(N)Oc4c3ccc3ccccc43)cc2c1 (stereo unspecified)	250 (≈ 538 µM)	250 (≈ 538 µM)	250 (≈ 538 µM)	100 (≈ 215 µM)	200 (≈ 431 µM)	200 (≈ 431 µM)	1000 (≈ 2150 µM)	100 (≈ 215 µM)	–	–
COC1=CC(=O)C[C@@H](C)[C@]12Oc1c(Cl)c(OC)cc(OC)c1C2=O [GRISEOFULVIN]	–	–	–	–	–	–	100 (≈ 283 µM)	500 (≈ 1420 µM)	–	–
COc1ccc2nc(N3CCOCC3)c(C3C(C#N)=C(N)Oc4cc(O)ccc43)cc2c1 (stereo unspecified)	12.5 (≈ 29 µM)	250 (≈ 581 µM)	200 (≈ 465 µM)	250 (≈ 581 µM)	250 (≈ 581 µM)	250 (≈ 581 µM)	500 (≈ 1160 µM)	500 (≈ 1160 µM)	–	–
Cc1ccc2nc(N3CCOCC3)c(C3C(C#N)=C(N)OC4=C3C(=O)c3ccccc3C4=O)cc2c1 (stereo unspecified)	100 (≈ 209 µM)	250 (≈ 522 µM)	200 (≈ 418 µM)	100 (≈ 209 µM)	250 (≈ 522 µM)	250 (≈ 522 µM)	> 1000	> 1000	–	–
N#CC1=C(N)OC2=C(C(=O)CCC2)C1c1cc2ccccc2nc1N1CCOCC1 (stereo unspecified)	100 (≈ 248 µM)	250 (≈ 621 µM)	100 (≈ 248 µM)	250 (≈ 621 µM)	250 (≈ 621 µM)	250 (≈ 621 µM)	> 1000	1000 (≈ 2480 µM)	–	–
Cc1ccc2nc(N3CCOCC3)c(C3C(C#N)=C(N)OC4=C3C(=O)CCC4)cc2c1 (stereo unspecified)	100 (≈ 240 µM)	200 (≈ 480 µM)	200 (≈ 480 µM)	200 (≈ 480 µM)	200 (≈ 480 µM)	200 (≈ 480 µM)	> 1000	1000 (≈ 2400 µM)	–	–
NYSTATIN	–	–	–	–	–	–	–	–	100	100
Cc1ccc2nc(N3CCOCC3)c(C3C(C#N)=C(N)Oc4c3ccc3ccccc43)cc2c1 (stereo unspecified)	500 (≈ 1110 µM)	500 (≈ 1110 µM)	500 (≈ 1110 µM)	250 (≈ 557 µM)	12.5 (≈ 27.9 µM)	200 (≈ 446 µM)	500 (≈ 1110 µM)	> 1000	–	–
COc1ccc2nc(N3CCOCC3)c(C3C(C#N)=C(N)Oc4[nH]nc(C)c43)cc2c1 (stereo unspecified)	200 (≈ 478 µM)	250 (≈ 597 µM)	200 (≈ 478 µM)	250 (≈ 597 µM)	250 (≈ 597 µM)	250 (≈ 597 µM)	500 (≈ 1190 µM)	250 (≈ 597 µM)	–	–
N#CC1=C(N)Oc2c(c(=O)oc3ccccc23)C1c1cc2ccccc2nc1N1CCOCC1 (stereo unspecified)	250 (≈ 553 µM)	200 (≈ 442 µM)	250 (≈ 553 µM)	100 (≈ 221 µM)	250 (≈ 553 µM)	200 (≈ 442 µM)	500 (≈ 1110 µM)	500 (≈ 1110 µM)	–	–
